| SMILES | melting point [°C] |
| --- | --- |
| O=C(Nc1c[nH]nc1C(=O)NCCc1cccnc1)c1ccccn1 | 267 to 268 |
| CC(=NO)c1ccc(OCc2ccccc2)c(CCCc2ccc(C(=O)NCCO)cc2)c1 | 131 to 132 |
| CC(=O)Oc1cccc(C(=O)N[C@@H](Cc2ccccc2)[C@H](O)C(=O)O)c1C | 189 to 191 |
| COc1cc(-n2c(=O)cc(C(F)(F)F)n(N)c2=O)ccc1C#N | > 230 |
| CC1(C)CCC(Cc2ccc(Cl)cc2)C1(O)CO (configuration not stated) | 103 to 104 |
| CCC[C@H]1CC[C@H](CCCOc2ccc(C(=O)O[C@H](C)[C@@H](C)OC(=O)c3ccc(OCCC[C@H]4CC[C@H](CCC)CC4)cc3)cc2)CC1 | 109 |
| O=Cc1cc2c(cc1[N+](=O)[O-])OC(F)(F)O2 | 36 to 38 |
| CC(C)C[C@H](NC(=O)c1ccccc1Cl)C(=O)N[C@@H](C(C)C)[C@@H](O)c1c(-c2ccccc2)c1=O | 99 to 104 |
| COc1ccc(N2CCOCC2)c2sc(-c3nc4c([nH]3)CCN(C(C)=O)C4)nc12 | 155 to 157 |
| O=c1[nH]c2sc(I)nc2c2ccccc12 | > 250 |
| CCOC(=O)c1cn2c3c(c(Cl)ccc3c1=O)N(C)CC2C (configuration not stated) | 259 to 261 |
| CCOC(=O)c1c2n(c3c(Cl)c(N4CCC(N(C)C)C4)c(F)cc3c1=O)C(C)S2 (configuration not stated) | 131 to 133 |
| CN(C)c1ccc(C(C)(C(=O)O)c2ccc(N(C)C)cc2)cc1 | 152 to 154 |
| COc1cc(N)c(S(C)(=O)=O)cc1C(=O)NCC1CCCN1C (configuration not stated) | 190 to 191 |
| CC(OC1CCCN(Cc2n[nH]c(=O)[nH]2)C1c1ccccc1)c1cc(C(F)(F)F)cc(C(F)(F)F)c1 (configuration not stated) | 214 to 215 |
| CC(C)NC(=O)c1coc(CN2C(=O)C3(COc4cc5c(cc43)OCO5)c3ccccc32)n1 (configuration not stated) | 182 to 183 |
| Cc1ccc(-c2ccc3c(c2)OCO3)cc1 | 57 to 60 |
| Oc1ccc([C@H]2OCCN3[C@@H](CCc4ccccc4)CC[C@H]23)cc1 (racemic) | 170 to 172 |
| CCc1nn(-c2ccccn2)c2nc3cc(F)c(F)cc3c(Cl)c12 | 160 to 161 |
| CC1(c2cn(-c3c(Cl)cc(C(F)(F)F)cc3Cl)nc2C#N)CC1 | 138 to 139 |
| CN1CCN(c2ccc3ccccc3n2)CC1 | 110 to 112 |

| SMILES | melting point [°C] |
| --- | --- |
| CCCCN(CCCC)c1ccc(C=Cc2ccc(C=CC3=C(C#N)C(=C(C#N)C#N)OC3(C)C)s2)c(OCc2ccccc2)c1 | 218 to 219 |
| CNc1ccc(C#CCCN2CC=C(c3ccccc3)CC2)nc1 | 164 to 166 |
| N#Cc1ncn2c1[C@@H]1CCCN1C(=O)c1sccc1-2 | 249 to 251 |
| CN(C)c1ccc([N+](=O)[O-])cc1C#N | 109 to 110 |
| CN1CCC(c2cc3c(N(C)C)cccc3c(=O)[nH]2)CC1 | 216 to 218 |
| CC(C)CCS(=O)c1cccc(-c2nc(=O)c3ccccc3s2)n1 (configuration not stated) | 59.5 to 61 |
| Cc1cn(NC(=O)c2ccccc2C(=O)O)c2ccccc12 | 191 to 193 |
| COc1ccc2[nH]c(CCN(C)C)c(CSc3ccccc3)c2c1 | 85 to 88 |
| O=C1N=NC(=O)c2c1[nH]c1cc(C(F)(F)F)ccc21 | 291 to 293 |
| O=C(c1ccc([N+](=O)[O-])[nH]1)C(Cl)(Cl)Cl | 160 to 163 |
| CC1(C)CCc2c(-c3ccco3)nc3sc4c(NCCN5CCOCC5)ncnc4c3c2C1 | 123 to 125 |
| Cc1noc(NS(=O)(=O)c2cccc3c(NC(C)C)cccc23)c1C | 156 to 159 |
| O=C(Nc1cc(-c2ccnc3c(C(=O)c4cccs4)cnn23)ccc1F)c1c(F)cccc1F | 198 to 200 |
| O=[N+]([O-])c1ccc(-c2nc(-c3ccccn3)no2)cc1 | 211 to 213 |
| CC(c1ccccc1)c1n[nH]c2c1c(=O)n(-c1ccccc1)c1ncccc21 (configuration not stated) | 267 to 268 |
| Cc1[nH]c2ncnc(Nc3cccc(Br)c3)c2c1C | 243 to 244 |
| Cc1cc(CCCCCCCOc2ccc(C(=O)OC(C)C)cc2)on1 | 45 to 46 |
| COC(=O)C1=C(C)NC(C)=C(C(=O)OCCCC#N)C1c1ccccc1[N+](=O)[O-] (configuration not stated) | 48 to 51 |
| Clc1ccc(-c2cc(C3CC3)n3ncc(I)c3n2)cc1 | 189 to 190 |
| C[C@@]1(C(=O)O)Oc2ccccc2NC1=O | 168 to 171 |
| COc1cc(C=CN(C)C)ccc1[N+](=O)[O-] | 57 to 58.5 |

| SMILES | melting point [°C] |
| --- | --- |
| O=C(O)c1c[nH]c2cn[nH]c2c1=O | > 330 |
| CC(=O)Nc1c(C)cc(O)c(C)c1C | 189 to 190 |
| O=Cc1ccc(Cl)c(Cl)c1O | 97 |
| O=C(NNc1ccc(NC(=S)Nc2ccccc2)cc1)C(F)(F)F | 172 to 174 |
| COc1cc(C(=O)N2CCC(CCN3CCCN(c4nc5ccccc5n4CCCC(C)=O)CC3)(c3ccccc3)C2)cc(OC)c1OC (configuration not stated) | 95 to 112 |
| OCc1cc2ccsc2s1 | 85 to 87 |
| Cn1ncc2c1-c1c(Sc3ccccn3)sc(C(=O)O)c1CC2 | 231 to 232 |
| CC(=O)c1c(C)[nH]c(-c2ccccc2)c1N=Cc1ccc(Cl)cc1 | 214 to 215 |
| NC(=O)N1CC(Oc2ccc(Cl)c(Cl)c2)C1 | 179 to 184 |
| S=C1N=c2ccc(OCCN3CCC(Cc4ccc(Cl)cc4)CC3)cc2=N1 | 291 to 293 |
| CCOCC(=O)OC1(C(=O)CO)CCC2C3CCC4=CC(=O)CCC4(C)C3C(O)CC21C (configuration not stated) | 161 |
| Cc1nc(C)c(C(C)(O)c2ccccn2)s1 (configuration not stated) | 104 to 105 |
| CCCC=CCC(CC(=O)Nc1cc(Cc2n[nH]c(=O)c3ccccc23)ccc1F)C(=O)O (configuration not stated) | 179 to 181 |
| CNC(=S)N(C)c1ccc(Cl)nc1 | 87.5 to 88 |
| Nc1cc(Cl)ncc1F | 110 to 111 |
| CC(C)(C)c1cccc(C(=O)O)c1 | 96 to 97 |
| O=C(Nc1cccnn1)N1CCN(c2nccc(-c3ccc(F)cc3F)n2)CC1 | 184 to 185 |
| Nc1cc(-c2ccc(CO)o2)nn1Cc1ccccc1 | 163 |
| CCCCCS(=O)(=O)NC(=O)CCc1ccc(OC(C)C)cc1OCc1ccc(Cl)cc1Cl | 120 |

More lines, now with the values ahead:

| melting point [°C] | SMILES |
| --- | --- |
| 82 to 83 | CC(C)Oc1c(C(=O)Nc2ccccc2)oc2ccc(Cl)cc12 |
| 95 to 98 | C=CCNc1cc(Cl)nnc1Cl |
| 166 | COC(=O)c1c(Sc2ccc(OC)cc2)nc(C(=O)c2ccccc2)n1Cc1cc2c(cc1Cl)OCO2 |
| 225 to 227 | CC(C)n1nc(-c2ncc(O)nc2-c2ccccc2)ccc1=O |
| 110 to 112 | NS(=O)(=O)OCCN1CCCC1=O |
| 105 to 116 | CC12CCC(O)CC1=CCC1C2CCC2(C)C(c3ccco3)=CCC12 (configuration not stated) |
| 192 to 194 | CC(=O)Oc1ccc2c(c1)COc1c-2cc(Br)c2cc(OC(C)=O)ccc12 |
| 254 to 255 | N#Cc1[nH]c(-c2c(Cl)cc(C(F)(F)F)cc2Cl)nc1C(N)=O |
| 216 to 218 | O=C(O)c1cnc2cnc3ccccc3n2c1=O |
| 137 to 139 | CCCc1nc(NC(=N)N)sc1-c1cccc([N+](=O)[O-])c1 |
| > 300 | CC1(C)CC(=O)C2=C(C1)NC1=C(C(=O)CC(C)(C)C1)C2c1ccc(Cl)cc1Cl |
| 166 to 174 | CC(=O)c1cccc(OC2SCC(O)C(O)C2O)c1 (configuration not stated) |
| 199 to 200 | O=C(O)CCc1oc(-c2ccc3c(c2)OCO3)nc1-c1ccc(Cl)cc1 |
| 190 to 192 | CC1(C)COc2cc3c(cc21)C1(CO3)C(=O)N(C(c2ccccc2)c2ccccc2)c2ccccc21 (configuration not stated) |
| 226 to 228 | CCOC(=O)C1=C(C)NC(C)=C(C(=O)OC)C1c1cccc2c(=O)c(C)c(-c3ccccc3)oc12 (configuration not stated) |
| 145 to 146 | COC(=O)c1cc(OC)c(-n2cccc2)c(OC)c1 |
| 263 | Cc1ccc(N2C(=O)C(O)=C(C(=O)c3ccc(C(C)C)cc3)C2c2ccc(Cn3cccn3)cc2)nn1 (configuration not stated) |
| 84 to 85 | FC(F)(F)c1ccc(-c2nocc2CCl)cc1 |
| 132 to 135 | OCc1ccc(-c2ccccc2-c2nnn[nH]2)cc1 |
| 91 | CCCCCCCCCCSCCCCCCCCCCNC(=O)OCCN1CCOCC1 |
| 100 | CCOC(=O)Nc1c(C(=O)OCC)oc2cc(OCc3ccccc3)ccc12 |

| melting point [°C] | SMILES |
| --- | --- |
| 169 to 171 | Cc1c(Br)ccc(S(C)(=O)=O)c1S(C)(=O)=O |
| 128 | CCOC(=O)c1cnc2c(C)cc(-c3ccc(C(F)(F)F)cc3)cn12 |
| 298 to 299 | COc1ccc(-c2c(Cl)c(CN3C(=O)c4ccccc4C3=O)nc3sc4c(c23)CCS(=O)(=O)C4)cc1 |
| 124 to 128 | CCOC(=O)N1CC2CC1CN2Cc1ccccc1 (configuration not stated) |
| 87 to 90 | CNCCOc1ccc(C(=C(c2ccccc2)C(F)(F)F)c2ccc(OCOC)cc2)cc1 |
| 81 to 88 | CNCCC(O)(c1ccc(Br)cc1)c1ccccn1 (configuration not stated) |
| 279 to 281 | Cc1cc(Cl)ccc1-n1nc(O)c2[nH]c3cc(Cl)ccc3c(=O)c2c1=O |
| 216 to 217 | N#Cc1cc(F)ccc1Oc1ccc(-c2cn(C3CCOCC3)c3ncnc(N)c23)cc1 |
| 305 to 307 | CCCn1c(=O)c2c(NC)n[nH]c2n(Cc2ccc(Cl)cc2)c1=O |
| 140 to 142 | CCOC(=O)COc1ccc2cc(-c3cc4ccccc4o3)ccc2c1Cl |
| 128 to 130 | CCCNc1cccc(-c2ccnc3c(C(=O)c4cccs4)cnn23)c1 |
| 220 to 222 | O=C(NO)c1ccc(C(=O)NOCc2ccc3ccccc3c2)cc1 |
| 156 to 160 | COC(=O)Cn1cnc(N2CCc3ccccc3CC2)c(C#N)c1=O |
| 132 to 133 | COc1cc(OC)cc(C(Cc2ccc(OC)c(OC)c2)=NNS(=O)(=O)c2ccc(C)cc2)c1 |
| 136 to 138 | COC(=O)c1cn(-c2cc(C(=O)OC)c([N+](=O)[O-])cc2C(F)(F)F)cn1 |
| 108 to 110 | CCOC(=O)Cc1ccc(CCC(NC(=O)OC)C(=O)O)cc1 (configuration not stated) |
| 40 to 43 | Cc1oncc1C(=O)N1CCCCC1 |
| 125 | CNC(=O)CCC(=O)c1c(O)cccc1OC |
| 116 to 117 | CCC(=O)NC1=C(OCCOC)C(=O)c2ccccc2C1=O |
| > 250 | Cc1nc2ccc3ccc(CNc4ccc(C(=O)O)c(F)c4)cc3c2c(=O)[nH]1 |

From a melting point compilation (Tetko et al.; mined from patent text by program, amines drawn as free bases though some values may be those of a salt)
